Here are results for one compound from patent US8247447B2, “Use of derivatives of 4-hydroxyphenoxy acetic acid” (Cognis IP Management GmbH, priority 2007, dated 2012).

SMILES strings stand for the structures.

In the series the test system is Melanocytes (B16 cell line). As to the kind of experiment: Melanogenesis inhibition assay (melanin level by optical density at 475 nm; viable cells by cellular proteins, Bradford's method). It counts as cell-based. The following applies: for Protein level (rate of cellular proteins) / Melanin level (rate of melanin): B16 melanocytes, 3 days incubation; for Protein level (rate of cellular proteins): Bradford's method; for Melanin level (rate of melanin): OD 475 nm. As to the method:
Melanocytes (B16 cell line) were inoculated in standard medium of cell culture with foetal calf serum (FCS). After an incubation of 3 day at 37° C. and CO2=5%, growth medium was exchanged for standard medium with a range of concentrations for each compound to be tested and a control without ingredient. After an incubation of 3 days, the level of melanin was measured by recording the optical density at 475 nm. After washing the cells by a balanced salt, and homogenisation in a solution of 0.1 M NaOH, the number of viable cells was determined by evaluation of the level of cellular proteins (Bradford's method). The results are expressed in % against control (cell culture medium without compound) as a mean on 1 to 3 assays, each in triplicate.

In the case of `CC(Oc1ccc(O)cc1)C(=O)O` (racemic) [2-(4-hydroxyphenoxy)-propionic acid], the “Protein level (rate of cellular proteins)” value was found to be 103 %/control (dose 0.00003 % (w/v)); 97 %/control (dose 0.0001 % (w/v)); 107 %/control (dose 0.0003 % (w/v)); 104 %/control (dose 0.001 % (w/v)); 98 %/control (dose 0.01 % (w/v)). Also, the “Melanin level (rate of melanin)” value (dose 0.00003 % (w/v)) was determined as 84 %/control; the “Melanin level (rate of melanin)” value (dose 0.0001 % (w/v)) is recorded as 57 %/control; the “Melanin level (rate of melanin)” value (dose 0.0003 % (w/v)) is listed as 52 %/control; the “Melanin level (rate of melanin)” value (dose 0.001 % (w/v)) is reported as 39 %/control; the “Melanin level (rate of melanin)” value (dose 0.01 % (w/v)) came out at 37 %/control. For the same compound, the cell toxicity entry (melanocytes, doses up to 0.01%) is listed as “without any cell toxicity”. Besides, the “rate of melanin synthesis in melanocytes” value (result in words, over the tested dose range) is on record as “decreased in a dose dependant manner”.
